This note sets out measurements from patent publication US20230203060A1 (GENFLEET THERAPEUTICS (SHANGHAI) INC., priority 2020, published 2023).

pIC50: −log10 of the molar value. Read-outs that look alike come from different tables or passages of the source.

Format in all cases: cell-based, human
The subject of assay [1] is KRAS G12C mutant NCI-H358 cells. Kind of assay: Cell proliferation inhibition experiment, 3D spheroid, CellTiter-Glo, NCI-H358. The settings on record: NCI-H358 (KRAS G12C mutant) 3D spheroid, 5 days with compound, CellTiter-Glo, read-out: H358 IC50. A digest of the protocol: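 Luminescence (CellTiter-Glo, 30 min incubation) was read after 5 days of compound treatment of overnight-formed spheroids of 800 H358 or 400 A549 cells in 2% FBS medium. Inhibition relative to DMSO and blank controls was fitted with a four-parameter model to yield IC50.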

In assay [2] the test system is A549 cells (KRAS G12S mutant). Kind of assay: Cell proliferation inhibition experiment, 3D spheroid, CellTiter-Glo, A549. The settings on record: A549 (KRAS G12S mutant) 3D spheroid, 5 days with compound, CellTiter-Glo, read-out: A549 IC50. From the text: Raw materials and instruments: NCI-H358 purchased from ATCC; article number: CRL-5807; batch number: 70010825; A549 purchased from ATCC; article number: CCL-185; batch number: 70007820; RPMI1640 purchased from Gibco; article number: 11875-093; batch number: 2152748; F-12K purchased from Gibco; article number: 21127-022; batch number: 2185853; FBS purchased from Gibco; article number: 10099-141; batch number: 2109290CP; PS purchased from Gibco; article number: 15140-122; batch number: 2145451; Trypsin-EDTApurchased from Gibco; article number: 25200-072; batch number: 2085552; CellTiter Glo working solution purchased from Promega; article number: G9683; batch number: 398478; DMSO purchased from VWR AMRESCO; article number: 0231-500ML; batch number: 18C0656168; 384-well spheroid plate purchased from Corning; article number: 3830; batch number: 27519032; white opaque 384-well plate purchased from Corning; article number: 3570; batch number: 26819023; microplate reader purchased from PerkinElmer; model: Envision MLD2105-0020; equipment number 1050369.
NCI-H358 is a KRAS G12C mutant human non-small cell lung cancer cell line, cultured in 10% FBS RPMI-1640+1% PS culture medium; and A549 is a KRAS G12S mutant human lung adenocarcinoma cell line, cultured in 10% FBS F-12K+1% PS culture medium. Cells at logarithmic growth stage were taken, digested with trypsin-EDTA, then collected and counted. H358 was adjusted to 1.8 E4 cells/mL with 2% FBS RPMI-1640 culture medium, and A549 was adjusted to 8.9 E3 cells/mL with 2% FBS F-12K culture medium; 800 (45 μL) H358 or 400 (45 μL) A549 were inoculated respectively in a 384-well spheroid plate and cultured overnight to establish a 3D cell model. A 3.16-fold gradient concentration stock solution of 1000× compound was prepared with DMSO, and diluted 100-fold to 10× compound stock solution with 2% FBS culture medium. On the second day after cell inoculation, 5 μL of 10× compound stock solution was added to each cell culture well, with a final concentration of 1× and a DMSO content of 0.1%. DMSO was used as experimental control (control), and 2% FBS culture medium was used as blank control (blank). After 5 days of compound cell culture, 25 μL of CellTiter-Glo working solution was added to each well, mixed well at 400 rpm and incubated for 30 minutes. After standing at room temperature for 30 minutes, 40 μL of the mixed solution was transferred to a white opaque 384-well plate, and the luminescence chemiluminescence value was read with a microplate reader. The cell proliferation inhibition rate IR (%)=(RLU control -RLU compound)/(RLU control -RLU blank) x100% was calculated. The gradient dilution concentration of the compound and the corresponding cell proliferation inhibition rate were fitted by Prism 6 four-parameter method, and the IC50 value was calculated. The inhibitory activity of the compounds prepared in the above embodiments of the present disclosure on KRAS G12C mutant NCI-H358 cells was 0.0001 μM to 0.5 μM; the inhibitory activity of some compounds on KRAS G12C mutant NCI-H358 cells was 0.001 μM to 0.1 μM or 0.001 μM to 0.05 μM.

The test system of assay [3] is KRAS G12C mutant MIA PaCa-2 cells. The assay is described as follows: Cell proliferation inhibition experiment, 3D spheroid, CellTiter-Glo, MIA PaCa-2. The settings on record: 3D cell model in 384-well spheroid plate, 5 days, CellTiter-Glo, read-out: MIA-PaCa2 IC50. From the text: Raw materials and instruments: MIA PaCa-2 purchased from ATCC; article number: CRL-1420; batch number: 63143594; DMEM purchased from Gibco; article number: 11995-065; batch number: 2186878; FBS purchased from Gibco; article number: 10099-141; batch number: 2109290CP; Horse Serum purchased from Gibco; article number: 16050-122; batch number: 1818976; PS purchased from Gibco; article number: 15140-122; batch number: 2145451; Trypsin-EDTA purchased from Gibco; article number: 25200-072; batch number: 2085552; CellTiter Glo working solution purchased from Promega; article number: G9683; batch number 398478; DMSO purchased from VWR AMRESCO; article number: 0231-500ML; batch number: 18C0656168; 384-well spheroid plate purchased from Corning; article number: 3830; batch number: 27519032; white opaque 384-well plate purchased from Corning; article number: 3570; batch number: 26819023; microplate reader purchased from PerkinElmer; model: Envision MLD2105-0020; equipment number 1050369.
MIA PaCa-2 is a KRAS G12C mutant human pancreatic cancer cell line, cultured in 10% FBS+2.5% Horse Serum DMEM+1% PS culture medium; cells at logarithmic growth stage were taken, digested with trypsin-EDTA, then collected and counted, and 200 MIA PaCa-2 were inoculated in a 384-well spheroid plate, respectively, and cultured overnight to establish a 3D cell model. A 3.16-fold gradient concentration stock solution of 1000× compound was prepared with DMSO, and diluted 100-fold to 10× compound stock solution with culture medium. On the second day after cell inoculation, 10× compound stock solution was added to each cell culture well, with a final concentration of 1× and a DMSO content of 0.1%. DMSO was used as experimental control (control), and culture medium was used as blank control (blank). After 5 days of compound cell culture, 30 μL of CellTiter-Glo working solution was added to each well, mixed well and incubated for 30 minutes. After standing at room temperature for 30 minutes, 40 μL of the mixed solution was transferred to a white opaque 384-well plate, and the luminescence chemiluminescence value was read with a microplate reader. The cell proliferation inhibition rate IR (%)=(RLU control -RLU compound)/(RLU control−RLU blank)×100% was calculated. The gradient dilution concentration of the compound and the corresponding cell proliferation inhibition rate were fitted by XLFit four-parameter method, and the IC50 value was calculated. The inhibitory activity of the compounds prepared in the above embodiments of the present disclosure on KRAS G12C mutant MIA PaCa-2 cells was 0.0001 μM to 0.5 μM; the inhibitory activity of some compounds on KRAS G12C mutant MIA PaCa-2 cells was 0.001 μM to 0.1 μM or 0.001 μM to 0.05 μM.

The mark [4] stands for this setting: Homo sapiens, MIA PaCa-2, 120 h.

For orientation: pIC50 means −log10 of the IC50, conventionally taken in molar units. With `C=CC(=O)N1CCN2C(=O)c3c(N4CCC5(CCC5)C4)nc(-c4c(O)cccc4F)c(Cl)c3OC[C@H]2C1` [Z35, (6aR)-8-actyloyl-4-chloro-3-(2-fluoro-6-hydroxyphenyl)-1-(6-azaspiro[3.4]octan-6-yl)-6,6a,7,8,9,10-hexahydro-12H-pyrazino[2,1-c]pyrido[3,4-f][1,4]oxazepin-12-one], the pIC50 was 7.68 in assay [1], less than 5.30 in assay [2] and 7.44 in assay [3].

Regarding `C=CC(=O)N1CCN2C(=O)c3c(N4CCOC5(CCC5)C4)nc(-c4c(O)cccc4F)c(Cl)c3OC[C@H]2C1` [Z36, (6aR)-8-acryloyl-4-chloro-3-(2-fluoro-6-hydroxyphenyl)-1-(5-oxa-8-azaspiro[3.5]nonan-8-yl)-6,6a,7,8,9,10-hexahydro-12H-pyrazino[2,1-c]pyrido[3,4-f][1,4]oxazepin-12-one], the pIC50 in assay [1] (Homo sapiens, NCI-H358, 120 h) is 7.40; in assay [2] (Homo sapiens, A549, 120 h), less than 6.00; in assay [3] (setting [4]) it was 7.24.

For `C=CC(=O)N1CCN2C(=O)c3c(N4[C@@H]5CC[C@H]4COC5)nc(-c4c(O)cccc4F)c(Cl)c3OC[C@H]2C1` [Z38, (6aR)-8-acryloyl-1-((1R,5S)-3-oxa-8-azabicyclo[3.2.1]octan-8-yl)-4-chloro-3-(2-fluoro-6-hydroxyphenyl)-6,6a,7,8,9,10-hexahydro-12H-pyrazino[2,1-c]pyrido[3,4-f][1,4]oxazepin-12-one], the pIC50 in assay [1] (Homo sapiens, NCI-H358, 120 h) is 7.26; in assay [2] (Homo sapiens, A549, 120 h), less than 5.00; in assay [3] (setting [4]) it was 7.06.

For the molecule `C=CC(=O)N1CCN2C(=O)c3c(OCC4CCN(C)CC4)nc(-c4c(O)cccc4F)c(Cl)c3OC[C@H]2C1` [Z40, (6aR)-8-acryloyl-1-((1-methylpiperidin-4-yl)methoxy)-4-chloro-3-(2-fluoro-6-hydroxyphenyl)-6,6a,7,8,9,10-hexahydro-12H-pyrazino[2,1-c]pyrido[3,4-f][1,4]oxazepin-12-one], the negative logarithm of the IC50 (pIC50) in assay [1] (Homo sapiens, NCI-H358, 120 h) is 7.04; in assay [2] (Homo sapiens, A549, 120 h) it was less than 4.52; in assay [3] (setting [4]), 7.24.

On to `C=CC(=O)N1CCN2C(=O)c3c(Oc4cccc5c4OC(C)(C)C5)nc(-c4c(O)cccc4F)c(Cl)c3OC[C@H]2C1` [Z42, (6aR)-8-acryloyl-4-chloro-1-((2,2-dimethyl-2,3-dihydrobenzofuran-7-yl)oxy)-3-(2-fluoro-6-hydroxyphenyl)-6,6a,7,8,9,10-hexahydro-12H-pyrazino[2,1-c]pyrido[3,4-f][1,4]oxazepin-12-one], for which the negative logarithm of the IC50 (pIC50) was 7.43 in assay [1] (Homo sapiens, NCI-H358, 120 h); 5.20 in assay [2] (Homo sapiens, A549, 120 h); 7.06 in assay [3] (setting [4]).

On to `C=CC(=O)N1CCN2C(=O)c3c(N4CCC5(CC5)C4)nc(-c4c(O)cccc4F)c(Cl)c3OC[C@H]2C1` [Z44, (6aR)-8-acryloyl-4-chloro-3-(2-fluoro-6-hydroxyphenyl)-1-(5-azaspiro[2.4]heptan-5-yl)-6,6a,7,8,9,10-hexahydro-12H-pyrazino[2,1-c]pyrido[3,4-f][1,4]oxazepin-12-one], for which the pIC50 was 7.59 in assay [1] (Homo sapiens, NCI-H358, 120 h); less than 5.30 in assay [2] (Homo sapiens, A549, 120 h); 7.29 in assay [3] (setting [4]).

For `C=CC(=O)N1CCN2C(=O)c3c(N4CCC5(COC5)C4)nc(-c4c(O)cccc4F)c(Cl)c3OC[C@H]2C1` [Z45, (6aR)-8-acryloyl-4-chloro-3-(2-fluoro-6-hydroxyphenyl)-1-(2-oxa-6-azaspiro[3.4]octan-6-yl)-6,6a,7,8,9,10-hexahydro-12H-pyrazino[2,1-c]pyrido[3,4-f][1,4]oxazepin-12-one], the negative logarithm of the IC50 (pIC50) is 7.34 in assay [1] (Homo sapiens, NCI-H358, 120 h); less than 4.70 in assay [2] (Homo sapiens, A549, 120 h); 7.22 in assay [3] (setting [4]).

As for `C=CC(=O)N1CCN2C(=O)c3c(N4CCC5CN(C)CC54)nc(-c4c(O)cccc4F)c(Cl)c3OC[C@H]2C1` (stereo partly drawn) [Z47, (6aR)-8-acryloyl-4-chloro-3-(2-fluoro-6-hydroxyphenyl)-1-(5-methylhexahydropyrrolo[3,4-b]pyrrol-1(2H)-yl)-6,6a,7,8,9,10-hexahydro-12H-pyrazino[2,1-c]pyrido[3,4-f][1,4]oxazepin-12-one], the pIC50 in assay [1] (Homo sapiens, NCI-H358, 120 h) is 7.33; in assay [2] (Homo sapiens, A549, 120 h), less than 4.70; in assay [3] (setting [4]) it was 7.38.

Turning to `C=CC(=O)N1CCN2C(=O)c3c(N4CCOC[C@@H]4CC)nc(-c4c(O)cccc4F)c(Cl)c3OC[C@H]2C1` [Z52, (6aR)-8-acryloyl-4-chloro-1-((S)-3-ethylmorpholino)-3-(2-fluoro-6-hydroxyphenyl)-6,6a,7,8,9,10-hexahydro-12H-pyrazino[2,1-c]pyrido[3,4-f][1,4]oxazepin-12-one], the pIC50 was 7.44 in assay [1] (Homo sapiens, NCI-H358, 120 h); less than 5.30 in assay [2] (Homo sapiens, A549, 120 h); 7.41 in assay [3] (setting [4]).

With `C=CC(=O)N1CCN2C(=O)c3c(-c4ccccc4)nc(-c4c(O)cccc4F)c(Cl)c3OC[C@H]2C1` [Z53, (6aR)-8-acryloyl-4-chloro-3-(2-fluoro-6-hydroxyphenyl)-1-phenyl-6,6a,7,8,9,10-hexahydro-12H-pyrazino[2,1-c]pyrido[3,4-f]oxazepin-12-one], the negative-log IC50 (pIC50) in assay [1] was 6.84; in assay [2], less than 4.52; in assay [3], 6.53.
